How the values were obtained:
NCI-H226 = assay: NCI-60 one-dose screen; type: cell-based; conditions: Homo sapiens; NCI-H226, Non-small cell lung panel; single dose 10^−5 M; read-out: Growth inhibition %
SK-MEL-2 = assay: NCI-60 one-dose screen; type: cell-based; conditions: Homo sapiens; SK-MEL-2, Melanoma panel; single dose 10^−5 M; read-out: Growth inhibition %
ACHN = assay: NCI-60 one-dose screen; type: cell-based; conditions: Homo sapiens, Renal Cancer panel, single dose 10^−5 M, read-out: Growth inhibition %
SNB-19 = assay: NCI-60 one-dose screen; type: cell-based; conditions: Homo sapiens; SNB-19, CNS Cancer panel; single dose 10^−5 M; read-out: Growth inhibition %
BT-549 = assay: NCI-60 one-dose screen; type: cell-based; conditions: Homo sapiens; BT-549, Breast Cancer panel; single dose 10^−5 M; read-out: Growth inhibition %
DU-145 = assay: NCI-60 one-dose screen; type: cell-based; conditions: Homo sapiens; DU-145, Prostate Cancer panel; single dose 10^−5 M; read-out: Growth inhibition %
RPMI-8226 = assay: NCI-60 one-dose screen; type: cell-based; conditions: Homo sapiens; RPMI-8226, Leukemia panel; single dose 10^−5 M; read-out: Growth inhibition %
MDA-MB-231/ATCC = assay: NCI-60 one-dose screen; type: cell-based; conditions: Homo sapiens, Breast Cancer panel, single dose 10^−5 M, read-out: Growth inhibition %
PC-3 = assay: NCI-60 one-dose screen; type: cell-based; conditions: Homo sapiens; PC-3, Prostate Cancer panel; single dose 10^−5 M; read-out: Growth inhibition %
NCI-H460 = assay: NCI-60 one-dose screen; type: cell-based; conditions: Homo sapiens; NCI-H460, Non-small cell lung panel; single dose 10^−5 M; read-out: Growth inhibition %
SF-539 = assay: NCI-60 one-dose screen; type: cell-based; conditions: Homo sapiens; SF-539, CNS Cancer panel; single dose 10^−5 M; read-out: Growth inhibition %
K-562 = assay: NCI-60 one-dose screen; type: cell-based; conditions: Homo sapiens, K562; K-562, Leukemia panel; single dose 10^−5 M; read-out: Growth inhibition %
SW-620 = assay: NCI-60 one-dose screen; type: cell-based; conditions: Homo sapiens; SW-620, Colon Cancer panel; single dose 10^−5 M; read-out: Growth inhibition %
HT29 = assay: NCI-60 one-dose screen; type: cell-based; conditions: Homo sapiens, HT-29; HT29, Colon Cancer panel; single dose 10^−5 M; read-out: Growth inhibition %
KM12 = assay: NCI-60 one-dose screen; type: cell-based; conditions: Homo sapiens; KM12, Colon Cancer panel; single dose 10^−5 M; read-out: Growth inhibition %
SNB-75 = assay: NCI-60 one-dose screen; type: cell-based; conditions: Homo sapiens; SNB-75, CNS Cancer panel; single dose 10^−5 M; read-out: Growth inhibition %
RXF 393 = assay: NCI-60 one-dose screen; type: cell-based; conditions: Homo sapiens; RXF 393, Renal Cancer panel; single dose 10^−5 M; read-out: Growth inhibition %
SK-OV-3 = assay: NCI-60 one-dose screen; type: cell-based; conditions: Homo sapiens; SK-OV-3, Ovarian Cancer panel; single dose 10^−5 M; read-out: Growth inhibition %
U251 = assay: NCI-60 one-dose screen; type: cell-based; conditions: Homo sapiens, U-251; U251, CNS Cancer panel; single dose 10^−5 M; read-out: Growth inhibition %
NCI-H322M = assay: NCI-60 one-dose screen; type: cell-based; conditions: Homo sapiens, Non-small cell lung panel, single dose 10^−5 M, read-out: Growth inhibition %
SK-MEL-28 = assay: NCI-60 one-dose screen; type: cell-based; conditions: Homo sapiens; SK-MEL-28, Melanoma panel; single dose 10^−5 M; read-out: Growth inhibition %
MDA-MB-468 = assay: NCI-60 one-dose screen; type: cell-based; conditions: Homo sapiens; MDA-MB-468, Breast Cancer panel; single dose 10^−5 M; read-out: Growth inhibition %
[1] = tested on: panel of 60 human tumor cell lines; assay: NCI 60-cell line one-dose screen (mean); type: cell-based; conditions: mean of the 60 cell lines, single dose 10^−5 M, read-out: Mean % Growth Inhibition
In short: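 Percent inhibition of cell growth was recorded after exposure to 10^−5 M compound. This primary screen used the full NCI-60 panel of human tumour lines.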

LOX IMVI = assay: NCI-60 one-dose screen; type: cell-based; conditions: Homo sapiens, Melanoma panel, single dose 10^−5 M, read-out: Growth inhibition %
CCD-966SK = assay: MTT cell proliferation assay, CCD-966SK; conditions: CCD966SK skin fibroblast; 10 µM; 72 h MTT
Protocol: In the MTT assay, 96-well culture plates were used. A total of 7 × 10^4 cells per well were seeded, and test materials were added to the cells at various concentrations [47, 48]. Human cancer and non-cancer cell lines were purchased commercially from the American Type Culture Collection (ATCC). After 72 h, the cytotoxicity of the compounds and paclitaxel (as a positive control group) was detected using the MTT method (thiazolyl blue tetrazolium bromide, Sigma-M2128). Absorbance values at 570 and 620 nm (OD = OD570–OD620) were measured using an ELISA reader (Anthos Labtec Instruments, Salzburg, Austria).

IGROV1 = assay: NCI-60 one-dose screen; type: cell-based; conditions: Homo sapiens, IGROV-1; IGROV1, Ovarian Cancer panel; single dose 10^−5 M; read-out: Growth inhibition %
CCRF-CEM = assay: NCI-60 one-dose screen; type: cell-based; conditions: Homo sapiens, Leukemia panel, single dose 10^−5 M, read-out: Growth inhibition %
PDE5A = biological target: T1, PDE5A (Homo sapiens, UniProt O76074); assay: Phosphodiesterase 5 HTRF cGMP assay; type: biochemical; conditions: for IC50: means ± S.D. (n = 4), read-out: PDE5 IC50; for inhibition at 10 µM: read-out: PDE5 % Inhibition at 10 μM
T1 construct: purchased BPS Bioscience, San Diego, CA, USA
Protocol: All the synthesized acridine derivatives were tested for their in vitro ability to inhibit PDE5A at a screening dose of 10 µM.
The enzyme activities of phosphodiesterase 5 (PDE5) were measured using an HTRF cGMP assay kit (Cisbio, Codolet, France). […] Afterward, the HTRF reagent (cGMP-d2 and anti-cGMP-cryptate) was added for 1 h at 25 °C, and PDE activity was assayed on an HTRF reader (Tecan Infinite F200 Pro).

SMILES	inhibition at 10 µM (NCI-H226)	inhibition at 10 µM (SK-MEL-2)	inhibition at 10 µM (ACHN)	inhibition at 10 µM (SNB-19)	inhibition at 10 µM (BT-549)	inhibition at 10 µM (DU-145)	inhibition at 10 µM (RPMI-8226)	inhibition at 10 µM (MDA-MB-231/ATCC)	inhibition at 10 µM (PC-3)	inhibition at 10 µM (NCI-H460)	inhibition at 10 µM (SF-539)	inhibition at 10 µM (K-562)	inhibition at 10 µM (SW-620)	inhibition at 10 µM (HT29)	inhibition at 10 µM (KM12)	inhibition at 10 µM (SNB-75)	inhibition at 10 µM (RXF 393)	inhibition at 10 µM (SK-OV-3)	inhibition at 10 µM (U251)	inhibition at 10 µM (NCI-H322M)	other results
COc1ccc(CNc2c3ccccc3nc3ccccc23)c(OC)c1 [Compound 17, Acridin-9-yl-(2,4-dimethoxybenzyl)-amine]	53.7%	5.98%	74.2%	66.5%	33.3%	50.6%	65.1%	56.4%	52.9%	83.3%	85.4%	86.8%	79.3%	86.2%	45.7%	35.5%	66.6%	36.7%	58.2%	60%	inhibition at 10 µM (SK-MEL-28): 30.7%; inhibition at 10 µM (MDA-MB-468): 95.2%; inhibition at 10 µM [1]: 60.8%; inhibition at 10 µM (LOX IMVI): 82.3%; % Inhibition at 10 µM (CCD-966SK): 35.11 ± 0.42%; inhibition at 10 µM (IGROV1): 77.5%; inhibition at 10 µM (CCRF-CEM): 44.6%; IC50 (PDE5A): 6.77 ± 1.31 µM; inhibition at 10 µM (PDE5A): 60.2 ± 5.89%
COc1ccc(CNc2c3ccccc3nc3ccccc23)cc1OC [Compound 18, Acridin-9-yl-(3,4-dimethoxybenzyl)-amine]	72%	61.4%	95.9%	78.2%	57.9%	75.3%	99.4%	80.6%	78%	93.8%	84.7%	91.2%	84%	95.6%	68.4%	75.2%	96.4%	58.9%	76.8%	70.2%	inhibition at 10 µM (SK-MEL-28): 64.8%; inhibition at 10 µM (MDA-MB-468): 123%; inhibition at 10 µM [1]: 81.6%; inhibition at 10 µM (LOX IMVI): 104%; % Inhibition at 10 µM (CCD-966SK): 32.27 ± 0.58%; inhibition at 10 µM (IGROV1): 89.1%; inhibition at 10 µM (CCRF-CEM): 69.5%; IC50 (PDE5A): 9.77 ± 3.11 µM; inhibition at 10 µM (PDE5A): 51.2 ± 5.26%
COc1ccc(CNc2c3ccccc3nc3ccccc23)cc1F [Compound 19, Acridin-9-yl-(3-fluoro-4-methoxybenzyl)-amine]	57%	54.9%	89.1%	72%	50.5%	72.8%	106%	70.8%	69.5%	93.7%	81.8%	95.2%	83.4%	87.8%	67.2%	57.5%	88.9%	52%	73.1%	68.3%	inhibition at 10 µM (SK-MEL-28): 53.3%; inhibition at 10 µM (MDA-MB-468): 119%; inhibition at 10 µM [1]: 76.2%; inhibition at 10 µM (LOX IMVI): 98.8%; % Inhibition at 10 µM (CCD-966SK): 41.77 ± 0.99%; inhibition at 10 µM (IGROV1): 84.2%; inhibition at 10 µM (CCRF-CEM): 70.4%; IC50 (PDE5A): 3.39 ± 1.03 µM; inhibition at 10 µM (PDE5A): 79.2 ± 8.48%
Fc1cccc(CNc2c3ccccc3nc3ccccc23)c1F [Compound 20, Acridin-9-yl-(2,3-difluorobenzyl)-amine]	27.1%	-6.76%	69.4%	41.5%	9.44%	23.3%	47.1%	41.8%	42.9%	52%	44.5%	56.6%	58.6%	70.9%	13.1%	21.2%	40.5%	24.1%	34.5%	36.6%	inhibition at 10 µM (SK-MEL-28): 3.12%; inhibition at 10 µM (MDA-MB-468): 78%; inhibition at 10 µM [1]: 40.7%; inhibition at 10 µM (LOX IMVI): 60.8%; % Inhibition at 10 µM (CCD-966SK): 40.30 ± 3.56%; inhibition at 10 µM (IGROV1): 47.3%; inhibition at 10 µM (CCRF-CEM): 37.6%; IC50 (PDE5A): 7.25 ± 2.21 µM; inhibition at 10 µM (PDE5A): 57.9 ± 6.04%
Fc1ccc(CNc2c3ccccc3nc3ccccc23)c(F)c1 [Compound 21, Acridin-9-yl-(2,4-difluorobenzyl)-amine]	45.2%	0.35%	76.5%	58.5%	17.2%	49.1%	71.7%	55.6%	31.1%	80%	67.6%	77.5%	70.2%	78.2%	40%	18.9%	65.5%	40.2%	55.9%	50.8%	inhibition at 10 µM (SK-MEL-28): 9.61%; inhibition at 10 µM (MDA-MB-468): 104%; inhibition at 10 µM [1]: 56.4%; inhibition at 10 µM (LOX IMVI): 78.5%; % Inhibition at 10 µM (CCD-966SK): 30.94 ± 0.86%; inhibition at 10 µM (IGROV1): 64.3%; inhibition at 10 µM (CCRF-CEM): 46.1%; IC50 (PDE5A): > 10 µM; inhibition at 10 µM (PDE5A): 31.9 ± 8.01%
Fc1ccc(CNc2c3ccccc3nc3ccccc23)cc1F [Compound 22, Acridin-9-yl-(3,4-difluorobenzyl)-amine]	52.4%	10.6%	80.7%	67.1%	31.8%	60.5%	73.1%	65.2%	64.3%	85.4%	77.9%	87.7%	76.3%	86.6%	46.7%	33.8%	92.6%	44.3%	69.7%	61%	inhibition at 10 µM (SK-MEL-28): 17.6%; inhibition at 10 µM (MDA-MB-468): 111%; inhibition at 10 µM [1]: 64.8%; inhibition at 10 µM (LOX IMVI): 87.5%; % Inhibition at 10 µM (CCD-966SK): 37.49 ± 7.38%; inhibition at 10 µM (IGROV1): 77.2%; inhibition at 10 µM (CCRF-CEM): 58.5%; IC50 (PDE5A): > 10 µM; inhibition at 10 µM (PDE5A): 36.2 ± 9.78%

Reference: PMC9866191, “Novel 9-Benzylaminoacridine Derivatives as Dual Inhibitors of Phosphodiesterase 5 and Topoisomerase II for the Treatment of Colon Cancer” (Molecules, 2023)
